These results are taken from US20130210755A1, “METHODS FOR INHIBITING INSECT INFESTATIONS” (ELI LILLY AND COMPANY, priority 2010, published 2013).

Common to all, as to type: in vivo
Data set [1] concerns stable fly (Stomoxys calcitrans). Put plainly: Fecal bioassay: emergence of adult stable flies from manure of horses given oral spinosad feed-through. On the procedure: (§1) A study was conducted to evaluate the efficiency of oral spinosad feed-through for controlling development of immature stages of the house fly (Musca domestica) and stable fly (Stomoxys calcitrans) in the manure of treated horses. There were five treatment groups, having three horses each. Treatment groups 1-4 were administered the following pellet formulation: […]
(§2) Treatment groups 1-4 were provided the test substance top-dressed onto feed supplement and fed at a rate to deliver a dose, respectively, of approximately 0.6, 0.8, 1.0, and 1.2 mg spinosad/kg body weight/day, daily for the duration of the study. Treatment group 5 was the negative control group and was fed the above formulation without spinosad, and each horse in this treatment group received one ounce (28.3 g) of the negative control substance.
(§3) Fecal samples from the three horses in each treatment group were collected on study days—1, 3, 10, and 17, and bioassayed with eggs of house flies and stable flies, and the number of adult flies that emerged from the fecal sample bioassays were determined. The concentration of spinosyn A in the fecal samples was also determined.
(§4) Another study was carried out, similar to the above study, with a few changes. There were three spinosad administered groups, with the rates of spinosad being 0.4, 0.5, and 0.6 mg spinosad/kg of body weight. There was a positive control group, administered between 0.6 and 0.7 mg cyromazine/kg of body weight. There was also a negative control group.

Data set [2] is described as follows: Observed adverse effects in horses under feed-through administration. On the procedure: as §1, §2, §4
Data set [3] relates to house fly (Musca domestica). The experiment in a line: Fecal bioassay: emergence of adult house flies from manure of horses given oral spinosad feed-through. On the procedure: as §1, §2, §3
Another study was carried out, similar to the above study, with a few changes. There were three spinosad administered groups, with the rates of spinosad being 0.4, 0.5, and 0.6 mg spinosad/kg of body weight. […]

A short description of data set [4]: Concentration of spinosyn A in fecal samples of treated horses. On the procedure: as §2, §3, §4
For data set [5], the system named is horn flies (Haematobia irritans). Put plainly: Orally administered spinosad to control horn flies on cattle. Conditions: flies remaining after 24 hours exposure. On the procedure: A study was conducted to evaluate the efficacy of orally administered spinosad to control horn flies (Haematobia irritans), an obligate ectoparasite of cattle. A liquid spinosad formulation was topically applied to a palatable feed ration and fed to cattle at doses of 0.03, 0.10, 0.30 and 3.0 mg/kg of body weight. The number of horn flies remaining after 24 hours exposure to the cattle in an enclosed room was determined on test days 2, 4, 9, 11, 16, 18, 23 and 25 and was compared to the number remaining for the control group. The percent reduction in horn flies was notable for the 0.30 and 3.0 mg/kg test groups.

Regarding `Nc1nc(N)nc(NC2CC2)n1` [cyromazine], the “Reduction of the emergence of stable flies” value in data set [1] (second study, horses, 0.6-0.7 mg cyromazine/kg) was found to be 100%.
In the case of spinosad, the adverse effects entry in data set [2] (first study, horses, 0.6-1.2 mg spinosad/kg body weight/day, daily for the study) is “no observed adverse effects”; in data set [2] (second study, horses, 0.4, 0.5, 0.6 mg spinosad/kg) it was “no observed adverse effects”. The “effective in preventing emergence of adult house flies” value in data set [3] (first study, all 4 groups (0.6, 0.8, 1.0, 1.2 mg spinosad/kg body weight/day), all three post-administration collection days (3, 10, 17)) came out at 100%. In data set [3] (second study, all three spinosad groups (0.4, 0.5, 0.6 mg/kg), all three fecal sample collection dates), the “efficacy in preventing emergence of adult house flies” value is reported as 100%. In addition, the “mean spinosyn A concentration in fecal samples” value in data set [4] (first study, 0.6 mg spinosad/kg of body weight group, all three animals) came out at 3.4 ppm; in data set [4] (first study, 0.8 mg spinosad/kg of body weight group, all three animals), 2.9 ppm; in data set [4] (first study, 1.2 mg spinosad/kg of body weight group) it was 5.5 ppm; in data set [4] (second study, 0.4 mg spinosad/kg group, all three animals, all three post-administration dates) it was 2.2 ppm; in data set [4] (second study, 0.5 mg spinosad/kg group, all three animals, all three post-administration dates), 3.2 ppm; in data set [4] (second study, 0.6 mg spinosad/kg group, all three animals, all three post-administration dates), 3.7 ppm. Besides, the “concentration of spinosyn A in fecal samples (lowest single sample)” value in data set [4] (first study, one horse, 0.6 mg spinosad/kg group, study day 3) stood at 0.9 ppm. Further, the “concentration of spinosyn A in fecal samples (highest single sample)” value in data set [4] (first study, one horse, 1.2 mg spinosad/kg group, study day 10) was determined as 8.6 ppm. Moreover, the “percent reduction in horn flies vs control group” value in data set [5] (oral 0.30 mg/kg in feed, from day 9 and on) is “at least 63.3%”; in data set [5] (oral 3.0 mg/kg in feed, all time points (days 2-25)), “at least 89.2%”. In addition, the “reduction in stable fly emergence” value in data set [1] (first study, 0.6 mg spinosad/kg of body weight group, study day 17 fecal sample collection) was found to be 97.25%; in data set [1] (second study, 0.4 mg spinosad/kg of body weight group, study day 10 fecal sample collection), 99.3%. Besides, the “Reduction in emergence of stable fly adults” value in data set [1] (first study, horses, all 4 spinosad treatments (0.6-1.2 mg/kg/day) at all three post-administration collections, with one exception) was determined as 100%. Moreover, the “Reduction of the emergence of stable flies” value in data set [1] (second study, horses, all three spinosad groups (0.4, 0.5, 0.6 mg/kg), with one exception) is given as 100%.
